Assay results published in US7973069B2 (PTC Therapeutics, Inc., priority 2004, dated 2011).
“And” between values parts separate entries of the source, which are not always exact repeats. Equal entries are not always repeated.

System: HCV replicon
Type: cell-based

SMILES: CC(C)S(=O)(=O)Nc1ccc(-c2c(C#N)c3ccc(OC(F)F)cc3n2CC2CC2)cc1 [Compound 941]
- IC50: < 0.5 µM

SMILES: CCOc1ccc2c(C#N)c(-c3ccc(NC(=O)OCCOC)cc3)n(C3CCC3)c2c1 [Compound 975]
- IC50: 0.5 to 2 µM

SMILES: CCOc1ccc2c(C#N)c(-c3ccc(N)cc3)n(C3CCC3)c2c1 [Compound 939]
- IC50: 0.5 to 2 µM

SMILES: CCOc1ccc2c(C#N)c(-c3ccc(NC(=O)OC(C)C(C)(C)C)cc3)n(C3CCC3)c2c1 (stereo not shown) [Compound 1312]
- IC50: < 0.5 µM

SMILES: CCOc1ccc2c(c1)c(C#N)c(-c1ccc(NC(=O)OCC(C)(C)C)cc1)n2C1CCC1 [Compound 1200]
- IC50: < 0.5 µM

SMILES: CCOc1ccc2c(c1)c(C#N)c(-c1ccc(NC(=O)NC(C)C)cc1)n2C1CCC1 [Compound 1224]
- IC50: 0.5 to 2 µM

SMILES: CCOc1ccc2c(c1)c(C#N)c(-c1ccc(NC(=O)NCCc3ccccc3)cc1)n2C1CCC1 [Compound 1227]
- IC50: < 0.5 µM

SMILES: CCCOC(=O)Nc1cccc(-c2c(C#N)c3ccc(OCCCN4CCOCC4)cc3n2CC)c1 [Compound 1034]
- IC50: < 0.5 µM

SMILES: COc1ccc2c(c1)c(C#N)c(-c1ccc(NC(=O)OC(C)C)cc1)n2C1CCC1 [Compound 1232]
- IC50: < 0.5 µM and 0.5 to 2 µM

SMILES: CCOc1ccc2c(C#N)c(-c3ccc(NC(=O)OCC(C)C)cc3)n(C3CCC3)c2c1 [Compound 979]
- IC50: < 0.5 µM

SMILES: CCn1c(-c2ccc(N3CCCS3(=O)=O)cc2)c(C#N)c2ccc(Oc3cnccn3)cc21 [Compound 1053]
- IC50: 0.5 to 2 µM

SMILES: CCOc1ccc2c(C#N)c(-c3ccc(NC(=O)OC)cc3)n(C3CCC3)c2c1 [Compound 970]
- IC50: < 0.5 µM

SMILES: CCOC(=O)Nc1ccc(-c2c(C#N)c3ccc(OCC)cc3n2C(C)C)cc1 [Compound 1065]
- IC50: 0.5 to 2 µM and < 0.5 µM

SMILES: CCCNC(=O)Nc1ccc(-c2c(C#N)c3cc(OC)ccc3n2C2CCC2)cc1 [Compound 1162]
- IC50: 0.5 to 2 µM

SMILES: CCCOC(=O)Nc1ccc(-c2c(C#N)c3ccc(OC)cc3n2CC)cc1C [Compound 965]
- IC50: 0.5 to 2 µM

SMILES: CCCCNC(=O)Nc1cccc(-c2c(C#N)c3ccc(OCC)cc3n2CCCC)c1 [Compound 1023]
- IC50: 0.5 to 2 µM

SMILES: CCOc1ccc2c(C#N)c(-c3ccc(NC(=O)OC4CCCC4)nc3)n(C3CCC3)c2c1 [Compound 1145]
- IC50: 0.5 to 2 µM

SMILES: CCOc1ccc2c(C#N)c(-c3ccc(NP(=O)(OCC)OCC)cc3)n(C3CCC3)c2c1 [Compound 936]
- IC50: < 0.5 µM

SMILES: CCOC(=O)Nc1ccc(-c2c(C#N)c3cc(OC)ccc3n2C2CCC2)cc1 [Compound 1176]
- IC50: 0.5 to 2 µM

SMILES: CCn1c(-c2ccc(NC(=O)C3CC3)cc2)c(C#N)c2ccc(OCCN3CCSCC3)cc21 [Compound 1090]
- IC50: 0.5 to 2 µM

SMILES: CCOc1ccc2c(C#N)c(-c3ccc(NC(=O)OCCCCl)cc3)n(C3CCC3)c2c1 [Compound 977]
- IC50: < 0.5 µM

SMILES: CCOc1ccc2c(C#N)c(-c3ccc(NC(=O)OC(C)CC)cc3)n(C3CCC3)c2c1 (stereo not shown) [Compound 1265]
- IC50: < 0.5 µM

SMILES: CCCNC(=O)Nc1ccc(-c2c(C#N)c3ccc(OC)cc3n2CC)cc1C [Compound 967]
- IC50: 0.5 to 2 µM

SMILES: CCCCNC(=O)Nc1ccc(-c2c(C#N)c3ccc(OC(F)F)cc3n2CC)cc1 [Compound 1138]
- IC50: 0.5 to 2 µM

SMILES: CCCNC(=O)Nc1ccc(-c2c(C#N)c3ccc(OC(F)F)cc3n2C2CCC2)cc1 [Compound 1187]
- IC50: 0.5 to 2 µM

SMILES: CCOc1ccc2c(c1)c(C#N)c(-c1ccc(NC(=O)OC(C)C3CC3)cc1)n2C1CCC1 (stereo not shown) [Compound 1296]
- IC50: 0.5 to 2 µM

SMILES: CCCN(c1ccc(-c2c(C#N)c3ccc(C(F)(F)F)cc3n2CC)cc1)S(=O)(=O)CC [Compound 1007]
- IC50: < 0.5 µM

SMILES: CCn1c(-c2cccc(N3CCNC3=O)c2)c(C#N)c2ccc(OCCCN3CCOCC3)cc21 [Compound 1068]
- IC50: 0.5 to 2 µM

SMILES: CCCn1c(-c2cccc(N)c2)c(C#N)c2cc(OCc3ccccc3)ccc21 [Compound 866]
- IC50: 0.5 to 2 µM

SMILES: CCN(CC)CCOc1ccc2c(C#N)c(-c3ccc(NC(=O)OC(C)C)cc3)n(C3CCC3)c2c1 [Compound 1278]
- IC50: < 0.5 µM

SMILES: CC1(COC(=O)Nc2ccc(-c3c(C#N)c4ccc(OCC5CCCO5)cc4n3C3CCC3)cc2)CC1 (stereo not shown) [Compound 1284]
- IC50: < 0.5 µM

SMILES: CCn1c(-c2ccc(NS(=O)(=O)CC)cc2)c(C#N)c2ccc(OCCCN3CCOCC3)cc21 [Compound 1115]
- IC50: 0.5 to 2 µM

SMILES: CC(C)OC(=O)Nc1ccc(-c2c(C#N)c3ccc(OCCN4CCSCC4)cc3n2C2CCC2)cc1 [Compound 1273]
- IC50: 0.5 to 2 µM

SMILES: C[C@@H](OC(=O)Nc1ccc(-c2cc3ccc(Oc4ncccn4)cc3n2C2CCC2)cc1)C1CC1 [Compound 2341]
- IC50: < 0.5 µM

SMILES: CCOc1ccc2c(C#N)c(-c3ccc(NC(=O)OCC4(C)CC4)cc3)n(C3CCC3)c2c1 [Compound 1208]
- IC50: < 0.5 µM

SMILES: CC(C)COC(=O)Nc1ccc(-c2c(C#N)c3ccc(OC(F)F)cc3n2CC2CC2)cc1 [Compound 1071]
- IC50: 0.5 to 2 µM and > 2 µM

SMILES: N#Cc1c(-c2ccc(NC(=O)OCC3CCC3)cc2)n(C2CCC2)c2cc(OCC3CCCO3)ccc12 (stereo not shown) [Compound 1287]
- IC50: < 0.5 µM

SMILES: CCN(C)CCOc1ccc2c(C#N)c(-c3ccc(NC(=O)OC(C)C)cc3)n(C3CCC3)c2c1 [Compound 1270]
- IC50: < 0.5 µM

SMILES: CCCOC(=O)Nc1ccc(-c2c(C#N)c3cc(OC)ccc3n2C2CCC2)cc1 [Compound 1177]
- IC50: < 0.5 µM and 0.5 to 2 µM

SMILES: CCN(C)CCOc1ccc2c(C#N)c(-c3ccc(NC(=O)NC(C)C)cc3)n(C3CCC3)c2c1 [Compound 1320]
- IC50: < 0.5 µM

SMILES: CCOc1ccc2c(C#N)c(-c3cccc(NC(=O)OCC(C)C)c3)n(C3CCC3)c2c1 [Compound 1037]
- IC50: 0.5 to 2 µM

SMILES: CCn1c(-c2ccc(N3CCNC3=O)cc2)c(C#N)c2ccc(OCCCCl)cc21 [Compound 1051]
- IC50: 0.5 to 2 µM

SMILES: CCCn1c(-c2ccc(NS(=O)(=O)C3CC3)cc2)c(C#N)c2cc(OC)ccc21 [Compound 998]
- IC50: 0.5 to 2 µM

SMILES: CCOc1ccc2c(c1)c(C#N)c(-c1ccc(NC(=O)OC3CCOC3)cc1)n2C1CCC1 (stereo not shown) [Compound 1297]
- IC50: 0.5 to 2 µM

SMILES: CCOc1ccc2c(C#N)c(-c3ccc(NC(=O)OC4CCC4)cc3)n(C3CCC3)c2c1 [Compound 1167]
- IC50: < 0.5 µM

SMILES: CCCOC(=O)Nc1ccc(-c2c(C#N)c3ccc(OCCCCl)cc3n2CC)cc1 [Compound 1030]
- IC50: < 0.5 µM

SMILES: CCn1c(-c2ccc(NS(=O)(=O)CC)c(C)c2)c(C#N)c2ccc(OC)cc21 [Compound 960]
- IC50: 0.5 to 2 µM

SMILES: CCCOc1ccc2c(C#N)c(-c3ccc(NC(=O)OC(C)CC)cc3)n(C(C)C)c2c1 (stereo not shown) [Compound 1246]
- IC50: < 0.5 µM

SMILES: CCCCn1c(-c2cccc(NC(=O)NCCc3ccccc3)c2)c(C#N)c2ccc(OCC)cc21 [Compound 1024]
- IC50: < 0.5 µM

SMILES: CCS(=O)(=O)Nc1ccc(-c2c(C#N)c3ccc(OC)cc3n2COC)cc1 [Compound 988]
- IC50: 0.5 to 2 µM

SMILES: CCn1c(-c2ccc(N)c(C)c2)c(C#N)c2ccc(OC)cc21 [Compound 927]
- IC50: 0.5 to 2 µM

SMILES: CCCNC(=O)Nc1ccc(-c2c(C#N)c3ccc(OCCF)cc3n2CC)cc1 [Compound 955]
- IC50: 0.5 to 2 µM and < 0.5 µM

SMILES: CCn1c(-c2ccc(NC(=O)OCc3ccccc3)cc2)c(C#N)c2ccc(OCCF)cc21 [Compound 948]
- IC50: < 0.5 µM

SMILES: CCn1c(-c2ccc(N)cc2)c(C#N)c2ccc(OC(F)F)cc21 [Compound 870]
- IC50: 0.5 to 2 µM

SMILES: CCCS(=O)(=O)Nc1ccc(-c2c(C#N)c3cc(OCC)ccc3n2C2CCC2)cc1 [Compound 1229]
- IC50: 0.5 to 2 µM

SMILES: CC(OC(=O)Nc1ccc(-c2c(C#N)c3ccc(OCC4CCCO4)cc3n2C2CCC2)cc1)C1CC1 (stereo not shown) [Compound 1281]
- IC50: < 0.5 µM

SMILES: N#Cc1c(-c2ccc(NC(=O)OC3CCC3)cc2)n(C2CCC2)c2cc(OCC3CCCO3)ccc12 (stereo not shown) [Compound 1282]
- IC50: < 0.5 µM

SMILES: CCCOC(=O)Nc1ccc(-c2c(C#N)c3ccc(OCC)cc3n2CCC)cc1 [Compound 1055]
- IC50: 0.5 to 2 µM and < 0.5 µM

SMILES: CCn1c(-c2ccc(NS(=O)(=O)C3CC3)c(C)c2)c(C#N)c2ccc(OC)cc21 [Compound 962]
- IC50: 0.5 to 2 µM

SMILES: CCn1c(-c2ccc(NC(=O)C3CC3)cc2)c(C#N)c2ccc(OCCn3cnnc3)cc21 [Compound 1092]
- IC50: 0.5 to 2 µM

SMILES: CCCOC(=O)Nc1ccc(-c2c(C#N)c3ccc(OC(F)F)cc3n2CC)cc1 [Compound 1132]
- IC50: 0.5 to 2 µM

SMILES: CCCOC(=O)Nc1ccc(-c2c(C#N)c3ccc(OCC)cc3n2C2CCC2)cc1 [Compound 972]
- IC50: < 0.5 µM

SMILES: CCn1c(-c2ccc(NS(=O)(=O)C3CC3)cc2)c(C#N)c2ccc(OCCCN3CCOCC3)cc21 [Compound 1117]
- IC50: 0.5 to 2 µM

SMILES: CCCOc1ccc2c(C#N)c(-c3ccc(NC(=O)OCC4(C)CC4)cc3)n(C(C)C)c2c1 [Compound 1243]
- IC50: < 0.5 µM

SMILES: CC(C)OC(=O)Nc1ccc(-c2c(C#N)c3ccc(Oc4ncccn4)cc3n2C2CCC2)cc1 [Compound 2151]
- IC50: < 0.5 µM

SMILES: CCn1c(-c2ccc(NC(=O)C3CC3)cc2)c(C#N)c2ccc(OCCN3CCOCC3)cc21 [Compound 1025]
- IC50: 0.5 to 2 µM

SMILES: CCCOc1ccc2c(C#N)c(-c3ccc(NC(=O)OC4CCCC4)cc3)n(C(C)C)c2c1 [Compound 1205]
- IC50: < 0.5 µM

SMILES: CC(C)OC(=O)Nc1ccc(-c2c(C#N)c3ccc(Oc4ncccn4)cc3n2C(C)C)cc1 [Compound 2392]
- IC50: < 0.5 µM

SMILES: CCOc1ccc2c(C#N)c(-c3ccc(NC(=O)OCC(C)C)cc3)n(CC3CC3)c2c1 [Compound 1151]
- IC50: < 0.5 µM

SMILES: CC(C)NC(=O)Nc1ccc(-c2c(C#N)c3ccc(OCCCn4ccnc4)cc3n2C2CCC2)cc1 [Compound 1308]
- IC50: < 0.5 µM

SMILES: CCn1c(-c2ccc(N(C)S(C)(=O)=O)cc2)c(C#N)c2ccc(C(F)(F)F)cc21 [Compound 1002]
- IC50: 0.5 to 2 µM

SMILES: CCCCNC(=O)Nc1cccc(-c2c(C#N)c3ccc(OCCCN4CCOCC4)cc3n2CC)c1 [Compound 1067]
- IC50: 0.5 to 2 µM

SMILES: CC(C)NC(=O)Nc1ccc(-c2c(C#N)c3ccc(OCCNC4CC4)cc3n2C2CCC2)cc1 [Compound 1317]
- IC50: < 0.5 µM

SMILES: CCCCS(=O)(=O)Nc1ccc(-c2c(C#N)c3ccc(OC(F)(F)F)cc3n2CC)cc1 [Compound 885]
- IC50: < 0.5 µM

SMILES: C=CCNC(=O)Nc1ccc(-c2c(C#N)c3cc(OC)ccc3n2CCC)cc1 [Compound 1001]
- IC50: 0.5 to 2 µM

SMILES: CCn1c(-c2ccc(NS(C)(=O)=O)c(C)c2)c(C#N)c2ccc(OC)cc21 [Compound 959]
- IC50: 0.5 to 2 µM

SMILES: CCCS(=O)(=O)Nc1ccc(-c2c(C#N)c3ccc(OCC)cc3n2C2CCC2)cc1 [Compound 932]
- IC50: < 0.5 µM

SMILES: CCn1c(-c2ccc(NS(=O)(=O)CCCCl)cc2)c(C#N)c2ccc(OC(F)F)cc21 [Compound 930]
- IC50: < 0.5 µM

SMILES: COCCN(C)CCOc1ccc2c(C#N)c(-c3ccc(NC(=O)OC(C)C)cc3)n(C3CCC3)c2c1 [Compound 1274]
- IC50: < 0.5 µM
